Reference: ChEMBL document CHEMBL1909046, “DrugMatrix in vitro pharmacology data”

How the values were obtained:
Progesterone receptor = molecular target: T1, Progesterone receptor (Bos taurus, UniProt Q690N0); experiment: DRUGMATRIX: Progesterone radioligand binding (ligand: [3H] R-5020); format: tissue-based, Uterus; conditions: Not Active = under 50% inhibition at 10 µM
T1 sequence (Q690N0 whole entry): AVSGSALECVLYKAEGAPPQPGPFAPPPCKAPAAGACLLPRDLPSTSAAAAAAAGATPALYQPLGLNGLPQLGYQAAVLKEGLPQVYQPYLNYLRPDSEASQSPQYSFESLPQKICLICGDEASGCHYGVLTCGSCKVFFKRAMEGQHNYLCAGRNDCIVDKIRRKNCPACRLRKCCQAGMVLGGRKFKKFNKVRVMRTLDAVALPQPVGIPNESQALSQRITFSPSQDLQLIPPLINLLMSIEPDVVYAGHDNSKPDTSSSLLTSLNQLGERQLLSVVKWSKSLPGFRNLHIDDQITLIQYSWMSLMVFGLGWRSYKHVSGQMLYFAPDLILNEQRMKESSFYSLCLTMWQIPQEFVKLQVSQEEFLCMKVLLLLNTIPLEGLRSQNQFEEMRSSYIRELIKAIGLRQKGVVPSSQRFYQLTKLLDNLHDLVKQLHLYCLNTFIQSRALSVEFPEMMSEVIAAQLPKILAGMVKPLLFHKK

Calcitonin receptor = molecular target: T2, Calcitonin receptor (Homo sapiens, UniProt P30988); format: cell membranes, Membrane; conditions: t47d; also: in other assays of this panel Not Active means under 50% inhibition at 10 µM
T2 sequence (P30988 whole entry): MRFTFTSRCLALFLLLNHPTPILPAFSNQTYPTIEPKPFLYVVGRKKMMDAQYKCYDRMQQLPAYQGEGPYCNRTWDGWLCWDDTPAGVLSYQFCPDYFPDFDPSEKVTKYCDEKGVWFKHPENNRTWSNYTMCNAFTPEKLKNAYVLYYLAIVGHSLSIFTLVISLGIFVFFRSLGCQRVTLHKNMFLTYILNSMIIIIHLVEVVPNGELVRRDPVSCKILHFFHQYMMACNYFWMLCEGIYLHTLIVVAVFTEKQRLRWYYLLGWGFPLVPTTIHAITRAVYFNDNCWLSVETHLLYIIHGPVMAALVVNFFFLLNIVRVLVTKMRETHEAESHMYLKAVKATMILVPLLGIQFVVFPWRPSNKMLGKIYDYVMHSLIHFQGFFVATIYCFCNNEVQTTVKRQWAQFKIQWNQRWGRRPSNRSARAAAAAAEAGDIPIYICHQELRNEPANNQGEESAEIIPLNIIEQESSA

[1] = molecular target: 5-hydroxytryptamine receptor 6 (Homo sapiens, UniProt P50406); format: cell membranes, HeLa, Membrane; also: in other assays of this panel Not Active means under 50% inhibition at 10 µM
Chain of 5-hydroxytryptamine receptor 6 (P50406 whole entry): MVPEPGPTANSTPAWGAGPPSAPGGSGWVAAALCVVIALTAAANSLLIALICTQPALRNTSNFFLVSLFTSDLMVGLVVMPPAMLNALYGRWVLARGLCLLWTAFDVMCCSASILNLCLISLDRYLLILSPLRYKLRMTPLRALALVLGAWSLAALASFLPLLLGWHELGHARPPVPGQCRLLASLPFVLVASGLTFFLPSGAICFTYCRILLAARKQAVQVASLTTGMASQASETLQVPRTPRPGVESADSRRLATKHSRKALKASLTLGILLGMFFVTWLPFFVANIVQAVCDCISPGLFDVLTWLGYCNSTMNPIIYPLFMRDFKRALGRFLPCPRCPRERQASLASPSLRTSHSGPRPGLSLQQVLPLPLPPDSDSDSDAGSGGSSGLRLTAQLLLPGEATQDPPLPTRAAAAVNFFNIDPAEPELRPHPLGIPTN

Substance-K receptor = molecular target: T3, Substance-K receptor (Homo sapiens, UniProt P21452); format: cell membranes, CHO, Membrane; also: in other assays of this panel Not Active means under 50% inhibition at 10 µM
T3 sequence (P21452 whole entry): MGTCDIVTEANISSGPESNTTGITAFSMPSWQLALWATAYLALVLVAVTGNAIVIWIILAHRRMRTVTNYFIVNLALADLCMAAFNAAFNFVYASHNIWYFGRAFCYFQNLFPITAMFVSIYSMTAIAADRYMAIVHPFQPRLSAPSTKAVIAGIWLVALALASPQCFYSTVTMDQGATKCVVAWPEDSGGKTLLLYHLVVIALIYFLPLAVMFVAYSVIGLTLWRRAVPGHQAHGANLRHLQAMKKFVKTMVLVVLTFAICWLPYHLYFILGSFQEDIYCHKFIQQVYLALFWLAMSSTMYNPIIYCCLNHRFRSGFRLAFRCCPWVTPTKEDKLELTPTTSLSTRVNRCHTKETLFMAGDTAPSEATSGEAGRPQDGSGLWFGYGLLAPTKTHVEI

Adenosine receptor A2a = Adenosine receptor A2a (Homo sapiens, UniProt P29274); experiment: DRUGMATRIX: Adenosine A2A radioligand binding (ligand: […]); format: cell membranes, HEK293, Membrane; conditions: hek293; Not Active = under 50% inhibition at 10 µM
Chain of Adenosine receptor A2a (P29274 whole entry): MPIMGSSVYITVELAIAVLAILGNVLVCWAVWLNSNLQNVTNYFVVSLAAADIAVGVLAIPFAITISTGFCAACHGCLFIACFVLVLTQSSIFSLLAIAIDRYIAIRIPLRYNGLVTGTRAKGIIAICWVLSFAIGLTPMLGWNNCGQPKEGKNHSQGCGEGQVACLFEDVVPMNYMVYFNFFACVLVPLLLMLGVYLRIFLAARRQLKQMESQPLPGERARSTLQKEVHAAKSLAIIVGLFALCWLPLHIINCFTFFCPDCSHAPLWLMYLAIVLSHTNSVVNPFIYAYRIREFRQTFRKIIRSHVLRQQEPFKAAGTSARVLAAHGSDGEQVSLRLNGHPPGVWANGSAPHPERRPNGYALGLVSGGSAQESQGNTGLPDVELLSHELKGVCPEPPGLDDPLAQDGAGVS

Compound	IC50 (Progesterone receptor)	IC50 (Calcitonin receptor)	IC50 ([1]; hela)	IC50 (Substance-K receptor; cho)	IC50 (Adenosine receptor A2a)	further results
OC[C@H]1O[C@@H]2O[C@H]3[C@H](O)[C@@H](O)[C@@H](O[C@H]4[C@H](O)[C@@H](O)[C@@H](O[C@H]5[C@H](O)[C@@H](O)[C@@H](O[C@H]6[C@H](O)[C@@H](O)[C@@H](O[C@H]7[C@H](O)[C@@H](O)[C@@H](O[C@H]8[C@H](O)[C@@H](O)[C@@H](O[C@H]1[C@H](O)[C@H]2O)O[C@@H]8CO)O[C@@H]7CO)O[C@@H]6CO)O[C@@H]5CO)O[C@@H]4CO)O[C@@H]3CO [BETADEX]	Not Active	Not Active	Not Active	Not Active	Not Active	–
COc1ccc(Cl)cc1C(=O)NCCc1ccc(S(=O)(=O)NC(=O)NC2CCCCC2)cc1 [GLYBURIDE]	Not Active	Not Active	Not Active	Not Active	Not Active	–
CCN1CCN(C(=O)N[C@@H](C(=O)N[C@@H]2C(=O)N3[C@@H]2SC(C)(C)[C@@H]3C(=O)O)c2ccccc2)C(=O)C1=O [PIPERACILLIN]	Not Active	Not Active	Not Active	Not Active	Not Active	–
CNC[C@H](O)c1ccc(O)c(O)c1 [EPINEPHRINE]	Not Active	Not Active	Not Active	Not Active	Not Active	–
CCC1(c2ccccc2)C(=O)NC(=O)NC1=O [PHENOBARBITAL]	Not Active	Not Active	Not Active	Not Active	Not Active	–
CC1(COc2ccc(CC3SC(=O)NC3=O)cc2)CCCCC1 (stereo not drawn) [CIGLITAZONE]	–	Not Active	Not Active	–	Not Active	IC50 (Progesterone receptor; read-out: IC50): 29.1 µM; Ki (Progesterone receptor; read-out: Ki): 3.8 µM; IC50 (Substance-K receptor; read-out: IC50): 12.6 µM; Ki (Substance-K receptor; read-out: Ki): 4.19 µM
O=C(O)CNCP(=O)(O)O [GLYPHOSATE]	Not Active	Not Active	Not Active	Not Active	Not Active	–
OC[C@H]1O[C@@H]2O[C@H]3[C@H](O)[C@@H](O)[C@@H](O[C@H]4[C@H](O)[C@@H](O)[C@@H](O[C@H]5[C@H](O)[C@@H](O)[C@@H](O[C@H]6[C@H](O)[C@@H](O)[C@@H](O[C@H]7[C@H](O)[C@@H](O)[C@@H](O[C@H]1[C@H](O)[C@H]2O)O[C@@H]7CO)O[C@@H]6CO)O[C@@H]5CO)O[C@@H]4CO)O[C@@H]3CO [ALFADEX]	Not Active	Not Active	Not Active	Not Active	Not Active	–
Nc1nc(F)nc2c1ncn2[C@@H]1O[C@H](CO)[C@@H](O)[C@@H]1O [FLUDARABINE]	Not Active	Not Active	Not Active	Not Active	Not Active	–
O=C(O)CO [GLYCOLIC ACID]	Not Active	Not Active	Not Active	Not Active	Not Active	–
O=C(NCCN1CCOCC1)c1ccc(Cl)cc1 [MOCLOBEMIDE]	Not Active	Not Active	Not Active	Not Active	Not Active	–
CARBOXYMETHYLCELLULOSE	Not Active	Not Active	Not Active	Not Active	Not Active	Ki (Progesterone receptor): Not Active; Ki (Calcitonin receptor): Not Active; Ki ([1]; hela): Not Active; Ki (Substance-K receptor; cho): Not Active; Ki (Adenosine receptor A2a): Not Active
COc1ccccc1OCCNCC(O)COc1cccc2[nH]c3ccccc3c12 (stereo not drawn) [CARVEDILOL]	Not Active	Not Active	–	Not Active	Not Active	IC50 ([1]; read-out: IC50): 1.52 µM; Ki ([1]; read-out: Ki): 0.705 µM
NC(N)=Nc1nc(CSCCC(N)=NS(N)(=O)=O)cs1 [FAMOTIDINE]	Not Active	Not Active	Not Active	Not Active	Not Active	–
COc1ccc(C[C@H](N)C(=O)N[C@H]2[C@@H](O)[C@H](n3cnc4c(N(C)C)ncnc43)O[C@@H]2CO)cc1 [PUROMYCIN]	Not Active	Not Active	Not Active	Not Active	Not Active	–
